Test results taken from the supplement of paper PMC13380429.

What was measured:
[1] = test system: A549-ACE2 infected with SARS-CoV-2; assay: morphology score (similarity to uninfected cells); higher = more like uninfected cells; details: 24 h
[2] = test system: A549-ACE2 infected with SARS-CoV-2; assay: cell count relative to DMSO; higher = less toxic; details: 24 h
U2OS [3] = assay: relative viability EC50 (midpoint between 100% and the lowest measured viability); higher = less toxic; details: 72 h
HepG2 [4] = assay: as above; details: 72 h
Caco-2 [5] = assay: as above; details: 72 h
Calu-3 [6] = assay: as above; details: 72 h
U2OS [7] = assay: cell viability relative to DMSO; higher = less toxic; details: 72 h
HepG2 [8] = assay: as above; details: 72 h
Caco-2 [9] = assay: as above; details: 72 h
Calu-3 [10] = assay: as above; details: 72 h
U2OS [11] = assay: drug sensitivity score (DSS) for viability; higher = more toxic; extreme values may be limits of the assay; details: 72 h
HepG2 [12] = assay: as above; details: 72 h
Caco-2 [13] = assay: as above; details: 72 h
Calu-3 [14] = assay: as above; details: 72 h
A549-ACE2 [15] = assay: drug-induced phospholipidosis relative to tamoxifen; higher = more phospholipidosis
[16] = test system: A549-ACE2 infected with SARS-CoV-2; assay: SARS-CoV-2 infection rate relative to DMSO; higher = more infection; details: 24 h
A549-ACE2 [17] = assay: phospholipidosis EC50; higher = less potent phospholipidosis inducer
Vero E6 [18] = assay: relative viability EC50 (midpoint between 100% and the lowest measured viability); higher = less toxic; details: 72 h
Vero E6 [19] = assay: cell viability relative to DMSO; higher = less toxic; details: 72 h
Vero E6 [20] = assay: drug sensitivity score (DSS) for viability; higher = more toxic; extreme values may be limits of the assay; details: 72 h

OCCN1C[C@H](O)[C@@H](O)[C@H](O)[C@H]1CO [miglitol]
Details	SARS-CoV-2 infection rate, [16] [%]	cell count, [2] [%]	cell viability, Caco-2 [9] [%]	cell viability, Calu-3 [10] [%]	cell viability, HepG2 [8] [%]	cell viability, U2OS [7] [%]	morphology score, [1]
1 nM	–	–	98.8	97.8	94.6	105	–
10 nM	–	–	99.2	95.7	114	99	–
100 nM	–	–	96.1	95.1	89.6	102	–
0.3 µM	94	106	–	–	–	–	0.36
1000 nM	–	–	101	110	103	98.5	–
3 µM	102	100	–	–	–	–	0.01
10 µM	103	100	–	–	–	–	0.02
10000 nM	–	–	94.7	96.2	101	103	–
30 µM	111	89	–	–	–	–	-0.07

Details	drug sensitivity score	relative viability EC50 [µM]
Caco-2 [5]	–	> 10
Caco-2 [13]	0	–
Calu-3 [6]	–	> 10
Calu-3 [14]	0	–
HepG2 [4]	–	> 10
HepG2 [12]	0	–
U2OS [3]	–	> 10
U2OS [11]	0	–

drug-induced phospholipidosis [%], A549-ACE2 [15]
Details	0.3 µM	0.833333 µM	3.33333 µM	6.66667 µM	10 µM	30 µM
24 h	3.38	-3.48	-1.06	-1.04	-2.08	-1.27
48 h	2.53	-2.84	1.36	1.25	2.47	2.29
72 h	3.37	-2.2	1.06	-0.466	0.978	2.7

OC1(c2ccc(Cl)c(C(F)(F)F)c2)CCN(CCCC(c2ccc(F)cc2)c2ccc(F)cc2)CC1 [penfluridol]
Details	SARS-CoV-2 infection rate [%]	cell count [%]	cell viability [%]	morphology score	phospholipidosis EC50 [µM]
A549-ACE2 [17], 24 h	–	–	–	–	0.874
Caco-2 [9], 1 nM	–	–	87.3	–	–
Caco-2 [9], 10 nM	–	–	74.2	–	–
Caco-2 [9], 100 nM	–	–	96.5	–	–
Caco-2 [9], 1000 nM	–	–	82.2	–	–
Caco-2 [9], 10000 nM	–	–	0.3	–	–
Calu-3 [10], 1 nM	–	–	102	–	–
Calu-3 [10], 10 nM	–	–	95.2	–	–
Calu-3 [10], 100 nM	–	–	100	–	–
Calu-3 [10], 1000 nM	–	–	93.1	–	–
Calu-3 [10], 10000 nM	–	–	1	–	–
HepG2 [8], 1 nM	–	–	106	–	–
HepG2 [8], 10 nM	–	–	108	–	–
HepG2 [8], 100 nM	–	–	104	–	–
HepG2 [8], 1000 nM	–	–	103	–	–
HepG2 [8], 10000 nM	–	–	0.2	–	–
U2OS [7], 1 nM	–	–	99.4	–	–
U2OS [7], 10 nM	–	–	100	–	–
U2OS [7], 100 nM	–	–	104	–	–
U2OS [7], 1000 nM	–	–	93.2	–	–
U2OS [7], 10000 nM	–	–	3	–	–
Vero E6 [19], 1 nM	–	–	105	–	–
Vero E6 [19], 10 nM	–	–	96.3	–	–
Vero E6 [19], 100 nM	–	–	94.1	–	–
Vero E6 [19], 1000 nM	–	–	97.8	–	–
Vero E6 [19], 10000 nM	–	–	0.1	–	–
[1], 0.1 µM	–	–	–	0.06	–
[1], 0.3 µM	–	–	–	0.27	–
[1], 1 µM	–	–	–	0.55	–
[1], 3 µM	–	–	–	0.86	–
[2], 0.1 µM	–	101	–	–	–
[2], 0.3 µM	–	94	–	–	–
[2], 1 µM	–	113	–	–	–
[2], 3 µM	–	95	–	–	–
[16], 0.1 µM	100	–	–	–	–
[16], 0.3 µM	102	–	–	–	–
[16], 1 µM	74	–	–	–	–
[16], 3 µM	8	–	–	–	–

Details	drug sensitivity score	relative viability EC50 [µM]
Caco-2 [5]	–	1.83
Caco-2 [13]	8.4	–
Calu-3 [6]	–	2.6
Calu-3 [14]	6.5	–
HepG2 [4]	–	3.34
HepG2 [12]	5.3	–
U2OS [3]	–	2.6
U2OS [11]	6.4	–
Vero E6 [18]	–	3
Vero E6 [20]	5.9	–

drug-induced phospholipidosis [%], A549-ACE2 [15]
Details	0.3 µM	0.833333 µM	3.33333 µM	6.66667 µM
24 h	12.8	30.2	64.4	48.3
48 h	13.8	28.2	67.6	–
72 h	16.8	26.4	77.7	–

c1cnc(N2CCN(Cc3ccc4c(c3)OCO4)CC2)nc1 [piribedil]
Details	SARS-CoV-2 infection rate, [16] [%]	cell count, [2] [%]	cell viability, Caco-2 [9] [%]	cell viability, Calu-3 [10] [%]	cell viability, HepG2 [8] [%]	cell viability, U2OS [7] [%]	cell viability, Vero E6 [19] [%]	morphology score, [1]
1 nM	–	–	106	110	98.9	104	100	–
10 nM	–	–	96.7	98	112	98.5	105	–
100 nM	–	–	95.8	99.3	98.9	103	100	–
0.3 µM	109	98	–	–	–	–	–	-0.23
1000 nM	–	–	92.9	89.5	107	98	98.1	–
3 µM	104	96	–	–	–	–	–	-0.1
10 µM	99	97	–	–	–	–	–	-0.05
10000 nM	–	–	90.3	102	102	99.9	94.4	–
30 µM	88	104	–	–	–	–	–	0.26

Details	drug sensitivity score	relative viability EC50 [µM]
Caco-2 [5]	–	> 10
Caco-2 [13]	0	–
Calu-3 [6]	–	> 10
Calu-3 [14]	0	–
HepG2 [4]	–	> 10
HepG2 [12]	0	–
U2OS [3]	–	> 10
U2OS [11]	0	–
Vero E6 [18]	–	> 10
Vero E6 [20]	0	–

drug-induced phospholipidosis [%], A549-ACE2 [15]
Details	0.3 µM	0.833333 µM	3.33333 µM	6.66667 µM	10 µM	30 µM
24 h	0.73	-0.78	-1.88	-1.98	-0.73	4.07
48 h	1.04	-0.48	-0.16	0.15	0.48	5.06
72 h	3.05	-0.292	-0.287	2.2	1.92	7.77

CCCOC(C(=O)OC1CCN(C)CC1)(c1ccccc1)c1ccccc1 [propiverine]
Details	SARS-CoV-2 infection rate [%]	cell count [%]	cell viability [%]	morphology score	phospholipidosis EC50 [µM]
A549-ACE2 [17], 24 h	–	–	–	–	2.8
A549-ACE2 [17], 48 h	–	–	–	–	4.22
A549-ACE2 [17], 72 h	–	–	–	–	5.23
Caco-2 [9], 1 nM	–	–	102	–	–
Caco-2 [9], 10 nM	–	–	102	–	–
Caco-2 [9], 100 nM	–	–	102	–	–
Caco-2 [9], 1000 nM	–	–	95.5	–	–
Caco-2 [9], 10000 nM	–	–	89.7	–	–
Calu-3 [10], 1 nM	–	–	93.5	–	–
Calu-3 [10], 10 nM	–	–	95.1	–	–
Calu-3 [10], 100 nM	–	–	100	–	–
Calu-3 [10], 1000 nM	–	–	105	–	–
Calu-3 [10], 10000 nM	–	–	80.4	–	–
HepG2 [8], 1 nM	–	–	106	–	–
HepG2 [8], 10 nM	–	–	109	–	–
HepG2 [8], 100 nM	–	–	104	–	–
HepG2 [8], 1000 nM	–	–	117	–	–
HepG2 [8], 10000 nM	–	–	78	–	–
U2OS [7], 1 nM	–	–	107	–	–
U2OS [7], 10 nM	–	–	99	–	–
U2OS [7], 100 nM	–	–	99.5	–	–
U2OS [7], 1000 nM	–	–	97.8	–	–
U2OS [7], 10000 nM	–	–	96.8	–	–
Vero E6 [19], 1 nM	–	–	103	–	–
Vero E6 [19], 10 nM	–	–	95	–	–
Vero E6 [19], 100 nM	–	–	105	–	–
Vero E6 [19], 1000 nM	–	–	96.4	–	–
Vero E6 [19], 10000 nM	–	–	98.4	–	–
[1], 0.3 µM	–	–	–	0.19	–
[1], 3 µM	–	–	–	0.77	–
[1], 10 µM	–	–	–	0.9	–
[1], 30 µM	–	–	–	0.74	–
[2], 0.3 µM	–	101	–	–	–
[2], 3 µM	–	119	–	–	–
[2], 10 µM	–	120	–	–	–
[2], 30 µM	–	110	–	–	–
[16], 0.3 µM	95	–	–	–	–
[16], 3 µM	51	–	–	–	–
[16], 10 µM	17	–	–	–	–
[16], 30 µM	11	–	–	–	–

Details	drug sensitivity score	relative viability EC50 [µM]
Caco-2 [5]	–	> 10
Caco-2 [13]	0	–
Calu-3 [6]	–	> 10
Calu-3 [14]	0.4	–
HepG2 [4]	–	> 10
HepG2 [12]	0.4	–
U2OS [3]	–	> 10
U2OS [11]	0	–
Vero E6 [18]	–	> 10
Vero E6 [20]	0	–

drug-induced phospholipidosis [%], A549-ACE2 [15]
Details	0.3 µM	0.833333 µM	3.33333 µM	6.66667 µM	10 µM	30 µM
24 h	2.28	8.59	66.7	91.7	105	109
48 h	4.59	4.15	46.3	84.9	98.8	115
72 h	4.64	4.08	43.7	80.2	95.8	123
